Measured values published in patent US12186283B2, “Bismuth-thiol compositions and methods of use” (Microbion Corporation, priority 2018, dated 2025).

Test system: MUCILAIR™ fully differentiated human airway epithelium
Test: Acute toxicity on […] fully differentiated human airway epithelium (LDH, TEER, morphology)
Type: cell-based
Experimental: Controlled in vitro evaluation of BisEDT, with respect to potential cytotoxicity on fully differentiated human airway epithelium was carried out. Both solubilized and solid (powder/particulate) forms of BisEDT were evaluated for cytotoxicity by Epithelix, a contract research organization (CRO) specializing in this form of cytotoxicity evaluation utilizing a proprietary, in vitro fully differentiated human airway epithelium test system ([…]™). The […]™ system facilitated evaluation of cytotoxicity through both LDH release (from the culture medium side) and trans-epithelial electrical resistance (TEER) from the apical/air-exposed side as well as pre- and post-exposure microscopic examination for morphological changes (FIG. 13).
The assay system used in this study is Epithelix's proprietary technology sold under the trademark […]™ […]™ is a fully differentiated and ready-to-use 3D model of human airway epithelium, constituted with primary human epithelial cells freshly isolated from nasal, tracheal or bronchial biopsies. […]™ (FIG. 24), is not only morphologically and functionally differentiated, but can also be maintained in a homeostatic state for a long period of time (Huang et al., 2009).
[…]™ is composed of basal cells, ciliated cells and mucus cells. The proportion of these various cell types is preserved compared to what one observes in vivo (Huang et al., 2011). Moreover the epithelia are started from de-differentiated cells. The cells undergo a progressive differentiation with time. After 45 days of culture, the epithelia are fully ciliated, secret mucus and are electrically tight (TEER>200 (2 Ω·cm^2). The activity of the main epithelial ionic channels, such as CFTR, EnaC, Na/K ATPase, is preserved and the epithelia is shown to respond in a regulated and vectorial manner to the pro-inflammatory stimulus, TNF-α (Huang et al., 2011). A large panel of cytokines, chemokines and metalloproteinases has been detected in […]™ (e.g. IL-8, IL-6, GM-CSF, MMP-9, GRO-α).
BisEDT (MB-1-B3) was applied on the apical surface of […]™ during 1, 8, 24 and 48 hours (FIG. 13). The effect of 6 concentrations was studied: 0.001, 0.01, 0.1, 1, 10 and 30 uM. […] 30 μl solution at the selected concentration was applied on the apical surface of […]™. The negative control corresponds to the vehicle solution (0 μM) and untreated cultures. The positive control corresponds to 50 μl to 10% Triton X-100 diluted in a buffered saline solution. The study was run in triplicates.
During the study, inserts were maintained in a CO2 incubator (37° C., 5% CO2, 100% humidity). The following end-points were determined: • Tissue integrity monitoring: Trans-Epithelial Electrical Resistance (TEER) measurement (quantitative) at D0, D1 and D2. • Cytotoxicity monitoring: LDH test (quantitative) at D0, D1 and D2. • Morphology: cellular and tissue integrity examined under contrast microscope at DO, D1 and D2.
Compound BisEDT was applied on the apical surface of […]™. The effect of 5 concentrations after 1, 8, 24 and 48 hours exposure was studied: 0.033, 0.33, 3.33, 33.3, 333 μg/cm^2. The compound was diluted in Dextran powder at the targeted concentration and compressed in order to obtain a tablet. The study was run in triplicates. During the study, inserts were maintained in a CO2 incubator (37° C., 5% CO2, 100% humidity).
Compound BisEDT was applied on the apical surface of […]™. The effect of 1 μg/cm^2 concentrations after 1, 8, 24 and 48 hours exposure was studied. The compound was diluted in Dextran powder at the targeted concentration and compressed in order to obtain a tablet. The study was run in triplicates. During the study, inserts were maintained in a CO2 incubator (37° C., 5% CO2, 100% humidity).

[1] = BisEDT as solid, 1 μg/cm^2, 1 hour exposure
[2] = BisEDT as solid, 0.033 and 0.33 μg/cm^2, all tested time points
[3] = BisEDT in solution 0.001-30 μM apical, 1, 8, 24 and 48 hours

With `C1C[S][Bi]([S]CC[S][Bi]2[S]CC[S]2)[S]1` [BisEDT, bismuth-1,2-ethanedithiol] the morphology after exposure (BisEDT as solid in dextran tablet, 3.33 μg/cm^2, 24 and 48 h) was “Cells were rounded and opaque at the periphery of inserts”, the morphology after exposure (BisEDT as solid in dextran tablet, 0.033 and 0.33 μg/cm^2) was “No morphological modifications were observed” and the morphology after exposure (BisEDT as solid in dextran tablet, 33.3 and 333 μg/cm^2, 8, 24 and 48h) was “Cells were rounded and opaque on the inserts”. For the same compound, the “tissue integrity (TEER)” value (BisEDT as solid, 1 μg/cm^2, 8, 24 and 48H exposure) was “Loss of tissue integrity is observed”, the “cytotoxicity (LDH release)” value (BisEDT as solid, 1 μg/cm^2, 8, 24 and 48h) was “time- and dose-dependent cytotoxicity is observed” and the morphology after exposure (BisEDT as solid, 1 μg/cm^2, 1 hour and 8 hour exposure) was “no important morphological changes were observed”. The “cytotoxicity (LDH release)” value [1] was “No significant effect on LDH release”, the “tissue integrity (TEER)” value [1] was “no significant effect on TEER was observed” and the morphology after exposure (BisEDT as solid, 1 μg/cm^2, 24h exposure) was “the epithelial cells on 2 inserts out of 3 were dead”. The morphology after exposure (BisEDT as solid, 1 μg/cm^2, 48 h exposure) was “the epithelial cells on all 3 inserts were dead”, the “cytotoxicity (LDH release)” value [2] was “No significant effect on LDH release” and the “tissue integrity (TEER)” value [2] was “No significant effect was observed on TEER”. The “cytotoxicity (LDH increase, TEER reduction)” value (BisEDT as solid, 1 and 3.33 μg/cm^2, 24 h and 48h exposure) was “induces cytotoxicity”, the “cytotoxicity (LDH release)” value (BisEDT as solid, 3.3, 33.3 and 333 μg/cm^2) was “time and dose dependent, cytotoxicity is observed” and the “tissue integrity (TEER)” value (BisEDT as solid, 3.33, 33.3 and 333 μg/cm^2, 8, 24 and 48H exposure) was “Loss of tissue integrity is observed”. The “toxicity (LDH, TEER, morphology)” value (BisEDT as solid, 33.3, 333 μg/cm^2) was “strong toxicity was observed”, the “tissue integrity (TEER)” value (BisEDT as solid, all tested doses (0.033-333 μg/cm^2), 1 hour exposure) was “no significant effect on TEER is observed” and the “local toxicity on the airway epithelium (morphology, TEER, LDH)” value (BisEDT in liquid solution 0.001-30 μM, 1, 8, 24 and 48 hours) was “showed no local toxicity”. For the same compound, the morphology after exposure [3] was “No morphology changes were observed”, the “percentage of cytotoxicity (LDH release)” value [3] was “LDH release was not altered” and the “tissue integrity (TEER)” value [3] was “didn't show significant effect on TEER”. The “highest tested concentration, no toxic effects observed” value (solubilized BisEDT, all time points up to 48 hours (=20.83 μg/mL)) was 30 µM.
